Series [1] relates to SLPI expression (luciferase plasmid driven by the SLPI promoter). Briefly: High-throughput screening: luciferase reporter driven by the SLPI promoter in MDA-MB-468 cells. It counts as cell-based, human. To be noted: 0.31 to 5 μM (five concentrations), 24 hours. From the text: Human triple-negative MDA-MB-231, LS174T, HEK293T and MCF-7 and MDA-MB 468 cell lines were obtained from the ATCC collection. MDA-MB-468 cells stably expressing luciferase plasmid driven by the SLPI promoter were used for high-throughput screening. To generate SLPI overexpressing cells, cancer cells were infected with pBabe-SLPI retroviruses containing the LTR promoter and puromycin resistant genes. The SLPI knockdown 4T1 cell line was established by lentiviral infection of 4T1 cells. Lentiviral particles were produced by transfecting 293T cells with two different shRNA clones that targeted SLPI (MISSION shRNA Sigma) and viral packages (VSVG,psPAX2) using FuGENE reagent (Promega, US). SLPI down-regulation was confirmed by using both q-PCR and ELISA.
After establishing that SLPI is a valid target for inhibiting TNBC metastasis, small molecules for use in inhibiting SLPI pharmacologically were screened. Human TNBC cell line MDA-MB-468 with a Luciferase plasmid driven by the SLPI promoter was used to perform high-throughput screening of a small-molecule library of 60,000 chemically-diverse compounds. Compounds (5 μM) were diluted in 100% DMSO, and spotted per well to 384-well plates using a Multimek 96/384 Channel Automated Pipetter. A cell-based readout system was used for compound selection. […] Selected compounds were also analyzed with 90% of SLPI repression. […]
A general note: Reporter assays use an easily measured gene product as a stand-in for the process of interest.

A further series has as its system MDA-MB-468 cancer cells. In words: MTT cell viability assay, MDA-MB-468. It counts as cell-based, human. Conditions: MDA-MB-468 cells, 24 hours. For orientation: Tetrazolium assays rely on reduction of a dye to a coloured formazan, in cell work by metabolically active cells.
The subject of the next series is 4T1 cancer cells. Briefly: MTT cell viability assay, 4T1. The format is cell-based, murine. To be noted: 4T1 cells, 24 hours.
In series [2] the test system is normal human umbilical vein endothelial cells (HUVEC). In words: MTT cell viability assay, HUVEC. It counts as cell-based. Conditions: 24 hours.
For the next series, the system named is 4T1 TNBC. In words: Orthotopic 4T1 TNBC tumor growth and spontaneous lung metastases in BALB/c mice. The format is in vivo. As to the method: Next, we tested whether treatment with the selected SLPI inhibitor C74 would decrease metastasis in vivo. Parental and modified 4T1 cells were injected into the third mammary fat pad of 8-week-old female BALB/C mice, 10^5 cells in 20 μL of HANKS per injection. The growing tumors were then either resected at a certain size or left as is. In the latter case, the mice were treated daily with intraperitoneal (i.p.) delivery of 20 mg/kg of the selected compound suppressing SLPI (or vehicle), for 12 consecutive days starting from day 6 after tumor implantation, when tumors were ˜3.8 mm in diameter on average (see FIG. 3D). The mice were sacrificed either on day 21 post primary tumor resection or 17 days after compound treatment initiation. The lungs were removed and placed in Bouin's solution (Sigma). A few days later, the lung surface was examined under a stereomicroscope and the number and size of metastases were evaluated.

The subject of series [3] is retinoblastoma (Rb) tumor suppressor protein phosphorylation. Briefly: Western blot of Rb phosphorylation in MDA-MB-231 and MCF7 cells. It counts as cell-based, human. As to the method:
Lysates from 293T, MDA-MB-231, MCF7 and 4T1 cells were prepared in lysis buffer containing Tris-HCl 50 mM/pH 7.4; NaCl 150 mM; NP-40 1%; SDS 0.1%; Na-deoxycholate 0.5%; EDTA 1 mM; plus 1% phosphatase inhibitor cocktails I and II (Sigma-Aldrich, US), and 1% protease inhibitor cocktail (Roche). Equal amounts of protein (50 μg/sample) were resolved by SDS-PAGE, transferred onto nitrocellulose membranes, and immunoblotted using the following primary antibodies: anti-SLPI, anti-RB (Cell Signaling and Santa Cruz Biotechnology, US), anti-SOD2, Aurora kinase, cyclin B1 and anti-β-catenin (Cell Signaling Technology). For co-IP assays, lysates were pre-cleared with IgG, and incubated with anti-SLPI, anti-RB or control IgG antibodies linked to Sepharose-A beads. Protein complexes were dissociated from beads and separated by SDS-PAGE. Immunodetection was performed by incubation with HRP-conjugated species-specific antibodies, followed by chemiluminescence detection (Perkin Elmer, US).

Another series deals with Rb-FoxM1 interaction. In words: Mammalian two-hybrid system, GAL4-Rb and VP16-FoxM1 in HEK293T cells. It counts as cell-based, human. Conditions: 1.5 μg/mL added to cell media, time course. An excerpt: For further verification of this interaction, a standard mammalian two-hybrid approach was used. The two genes encoding two of the three potentially interactive proteins of interest (Rb, SLPI and FoxM1) were cloned into pBIND and pACT vectors to generate fusion proteins with the DNA-binding domain of GAL4 and the activation domain of VP16. HEK293T cells were transiently transfected with a pG5luc luciferase reporter plasmid, pGAL4 and pVP16 fusion constructs. After two days, the transfected cells were lysed and the levels of luciferase were quantitated. Interaction between the two test proteins results in an increase in luciferase expression over the negative controls that included pBIND and pACT vectors. The pairs of fusion proteins GAL4-Rb plus VP16-SLPI induced activation of the reporter construct about 7 times more than the negative controls, as shown in FIG. 4C.

Series [4] deals with FoxM1 binding to the MMP2 promoter. Briefly: Electrophoretic mobility shift assay, FoxM1 binding to MMP2 promoter probe. It counts as cell-based, human. Conditions: protein extracts from treated MDA-MB-231 cells versus untreated cells. As for the experimental part:
To directly test the ability of SLPI to modify FoxM1 binding to another target gene, MMP2, we used the electrophoretic mobility shift assay. Electrophoretic mobility shift assays (EMSAs) were performed following manufacture protocol using kit from Thermo Fisher. Double-stranded oligonucleotides from MMP2 promoter with FoxM1 binding site were used: 5′-[…]-3′ (SEQ ID NO: 1). End-labelled DNA was detected using streptavidin-conjugated horseradish peroxidase. For the supershift assay, antibody against FoxM1 (Cell Signaling) was added to the binding reaction for 1 hour on ice.
The MMP2 promoter sequence comprising the FoxM1-binding site (−662 to −671 bp) was biotin-labeled and used as a probe for the protein binding gene promoter region (see e.g., Dai et al, Oncogene, 2007, 26:6212-6219). The probe was incubated with protein extracts from SLPI-treated MDA-MB-231 cells and untreated cells. […] The binding of this protein to the probe was sequence-specific, as it was blocked by competition with an unlabeled FoxM1 oligomer. To confirm that FoxM1 bound to MMP2 promoter in the presence of SLPI, a supershift assay was performed by adding FoxM1-binding antibody to that protein-DNA complex. The enhanced probe retardation is shown in lane 5 in FIG. 6A.

The mark [5] stands for this setting: 20 mg/kg i.p. daily for 12 days, lungs evaluated on day 23.

Entries after “also recorded” stand apart in the source; their conditions may differ.

As for `CCCOC(=O)c1cccc(NC(=O)COc2ccccc2Cl)c1` [Compound C74, propyl 3-(2-(2-chlorophenoxy)acetamido)benzoate], the “SLPI expression quantified using luciferase activity driven by the SLPI promoter” value in series [1] is “inhibition of SLPI expression; also recorded: Dose dependence of SLPI repression was confirmed”. In addition, the “toxic effect (cell viability, MTT assay)” value (in the series on MDA-MB-468 cancer cells; with 4T1 cancer cells; in series [2]) was “no toxic effect” each time. Moreover, the “changes in mouse weight, appearance, or behavior” value with 4T1 TNBC (20 mg/kg i.p. daily for 12 days) is given as “did not cause changes”. The “decrease of total number of lung metastases” value in the series with 4T1 TNBC (setting [5]) is recorded as 50%. Also, the “size of lung metastatic colonies” value with 4T1 TNBC (setting [5]) is “much smaller”. Moreover, the “primary tumor growth (tumor diameter)” value in the series on 4T1 TNBC (4T1 in mammary fat pad, 20 mg/kg i.p. daily for 12 days from day 6, 20 mg/kg) was “suppressed tumor growth and metastasis; also recorded: small, progressive inhibition of primary tumor growth”. Further, the “Rb phosphorylation (phospho-Rb Western blot)” value in series [3] (1 μM for 16 h) was “repressed Rb phosphorylation; also recorded: decreased phosphorylation of Rb”.

B1: recombinant SLPI protein: recombinant secretory leukocyte protease inhibitor protein added to cells at 1.5 μg/mL (protein, UniProt P03973 26-132, looked up)
Antileukoproteinase: SGKSFKAGVCPPKKSAQCLRYKKPECQSDWQCPGKKRCCPDTCGIKCLDPVDTPNPTRRKPGKCPVTYGQCLMLNPPNFCEMDGQCKRDLKCCMGMCGKSCVSPVKA
For B1, the “Rb phosphorylation (phospho-Rb Western blot)” value in series [3] (recombinant protein 1.5 μg/mL, as early as 1-2 h post treatment) was “increased phosphorylation of Rb”. Moreover, in the series with Rb-FoxM1 interaction, the “reporter construct activation (Rb-FoxM1 binding)” value is “progressive decrease of reporter construct activation”. Besides, the “binding activity of FoxM1 to MMP2 promoter probe” value in series [4] is on record as “substantial increase in binding activity of FoxM1”.

These data come from patent publication US11351144B2, “Compounds for inhibiting secretory leukocyte protease inhibitor (SLPI)” (The General Hospital Corporation, priority 2017, dated 2022).
